Data taken from ChEMBL document CHEMBL1133314, “Syntheses and biological evaluation of novel pseudomycin side-chain analogues. Part 2” (2000).
In brackets after ≈: the same amount, converted by molar mass.

Assays:
[1] = test system: Aspergillus fumigatus; experiment: Lowest concentration required to inhibit 90-100% of the visible growth of Aspergillus fumigatus; assay type: functional
[2] = test system: Candida albicans; experiment: Lowest concentration required to inhibit 90-100% of the visible growth of Candida albicans; Range is […]; assay type: functional
[3] = test system: Candida albicans; experiment: Lowest concentration required to inhibit 90-100% of the visible growth of Candida albicans; assay type: functional
[4] = test system: Cryptococcus neoformans; experiment: Tested in vitro for lowest concentration required to inhibit 90-100% of the visible growth of Cryptococcus neoformans
[5] = test system: Candida albicans; experiment: Lowest concentration required to inhibit 90-100% of the visible growth of Candida albicans; Range is 0.625-1.25; assay type: functional
[6] = test system: Cryptococcus neoformans; experiment: Tested in vitro for lowest concentration required to inhibit 90-100% of the visible growth of Cryptococcus neoformans; Range is 0.02-0.078
[7] = test system: Candida albicans; experiment: Lowest concentration required to inhibit 90-100% of the visible growth of Candida albicans; Range is 0.312-1.25; assay type: functional

Compound: C/C=C1\NC(=O)[C@H]([C@H](C)O)NC(=O)[C@H](CCN)NC(=O)[C@H](CCCCN)NC(=O)[C@H](CC(=O)O)NC(=O)[C@@H](CCN)NC(=O)[C@@H](NC(=O)C[C@@H](O)CCCCCCCCCCC)COC(=O)[C@H]([C@H](O)CCl)NC(=O)[C@H]([C@H](O)C(=O)O)NC1=O
- MIC [1]: > 20 µg/mL
- MIC [2]: 5 µg/mL (≈ 4.14 µM)

Compound: C/C=C1\NC(=O)[C@H]([C@H](C)O)NC(=O)[C@H](CCN)NC(=O)[C@H](CCCCN)NC(=O)[C@H](CC(=O)O)NC(=O)[C@@H](CCN)NC(=O)[C@@H](NC(=O)C[C@H](O)CCCCCCCCCCCCCCC)COC(=O)[C@H]([C@H](O)CCl)NC(=O)[C@H]([C@H](O)C(=O)O)NC1=O
- MIC [1]: 2.5 µg/mL (≈ 1.98 µM)
- MIC [3]: 0.625 µg/mL (≈ 0.495 µM)
- MIC [4]: 0.01 µg/mL (≈ 0.00791 µM)

Compound: C/C=C1\NC(=O)[C@H]([C@H](C)O)NC(=O)[C@H](CCN)NC(=O)[C@H](CCCCN)NC(=O)[C@H](CC(=O)O)NC(=O)[C@@H](CCN)NC(=O)[C@@H](NC(=O)C[C@@H](O)CCCCCCCCCCCCCCCCC)COC(=O)[C@H]([C@H](O)CCl)NC(=O)[C@H]([C@H](O)C(=O)O)NC1=O
- MIC [1]: > 20 µg/mL
- MIC [3]: 5 µg/mL (≈ 3.87 µM)
- MIC [4]: 5 µg/mL (≈ 3.87 µM)

Compound: C/C=C1\NC(=O)[C@H]([C@H](C)O)NC(=O)[C@H](CCN)NC(=O)[C@H](CCCCN)NC(=O)[C@H](CC(=O)O)NC(=O)[C@@H](CCN)NC(=O)[C@@H](NC(=O)C[C@H](O)CCCCCCCCCCCCCCCCC)COC(=O)[C@H]([C@H](O)CCl)NC(=O)[C@H]([C@H](O)C(=O)O)NC1=O
- MIC [1]: 5 µg/mL (≈ 3.87 µM)
- MIC [3]: 5 µg/mL (≈ 3.87 µM)
- MIC [4]: 1.25 µg/mL (≈ 0.968 µM)

Compound: C/C=C1\NC(=O)[C@H]([C@H](C)O)NC(=O)[C@H](CCN)NC(=O)[C@H](CCCCN)NC(=O)[C@H](CC(=O)O)NC(=O)[C@@H](CCN)NC(=O)[C@@H](NC(=O)C[C@@H](O)CCCCCCCCCCCCCCC)COC(=O)[C@H]([C@H](O)CCl)NC(=O)[C@H]([C@H](O)C(=O)O)NC1=O
- MIC [1]: 10 µg/mL (≈ 7.91 µM)
- MIC [3]: 2.5 µg/mL (≈ 1.98 µM)
- MIC [4]: 0.312 µg/mL (≈ 0.247 µM)

Compound: C/C=C1\NC(=O)[C@H]([C@@H](C)O)NC(=O)[C@H](CCN)NC(=O)[C@H](CCCCN)NC(=O)[C@H](CC(=O)O)NC(=O)[C@@H](CCN)NC(=O)[C@@H](NC(=O)CC(O)CCCCCCCCCCCCCCCCC)COC(=O)[C@H]([C@H](O)CCl)NC(=O)[C@H]([C@H](O)C(=O)O)NC1=O (mixture of isomers)
- MIC [1]: 2.5 µg/mL
- MIC [3]: 10 µg/mL
- MIC [4]: 0.625 µg/mL

Compound: C/C=C1\NC(=O)[C@H]([C@@H](C)O)NC(=O)[C@H](CCN)NC(=O)[C@H](CCCCN)NC(=O)[C@H](CC(=O)O)NC(=O)[C@@H](CCN)NC(=O)[C@@H](NC(=O)CC(O)CCCCCCCCCCC)COC(=O)[C@H]([C@H](O)CCl)NC(=O)[C@H]([C@H](O)C(=O)O)NC1=O (mixture of isomers)
- MIC [1]: > 20 µg/mL
- MIC [5]: 1.25 µg/mL

Compound: C/C=C1\NC(=O)[C@H]([C@@H](C)O)NC(=O)[C@H](CCN)NC(=O)[C@H](CCCCN)NC(=O)[C@H](CC(=O)O)NC(=O)[C@@H](CCN)NC(=O)[C@@H](NC(=O)CC(O)CCCCCCCCCCCCCCC)COC(=O)[C@H]([C@H](O)CCl)NC(=O)[C@H]([C@H](O)C(=O)O)NC1=O (mixture of isomers)
- MIC [1]: 5 µg/mL
- MIC [3]: 1.25 µg/mL
- MIC [6]: 0.02 µg/mL

Compound: C/C=C1\NC(=O)[C@H]([C@H](C)O)NC(=O)[C@H](CCN)NC(=O)[C@H](CCCCN)NC(=O)[C@H](CC(=O)O)NC(=O)[C@@H](CCN)NC(=O)[C@@H](NC(=O)C[C@H](O)CCCCCCCCCCC)COC(=O)[C@H]([C@H](O)CCl)NC(=O)[C@H]([C@H](O)C(=O)O)NC1=O [PSEUDOMYCIN B]
- MIC [1]: > 20 µg/mL
- MIC [7]: 1.25 µg/mL (≈ 1.03 µM)
